# How the values were obtained:
# [1] = type: physicochemical; conditions: pH 8
# Experimental: Large unilamellar vesicles (LUVs) were prepared by extrusion. POPC, 1-palmitoyl-2-oleoyl-sn-glycero-3-phosphocholine (Avanti Polar Lipids), or a mixture of POPC with 0.5% of 18:1 NBD-PE, 1,2-dioleoyl-sn-glycero-3-phosphoethanolamine-N-7-nitro-2-1,3-benzoxadiazol-4-yl ammonium salt (Avanti Polar Lipids) were dissolved in chloroform, desolvated on a rotary evaporator, and dried under high vacuum for several hours. The phospholipid film was then rehydrated in 10 mM phosphate buffer pH 8.0, vortexed until the lipid bilayer was completely dissolved, and repeatedly (15–21 times) extruded through the membranes with 50 nm pore sizes to obtain LUVs.
# pH-dependent partitioning of the peptides into a lipid bilayer of the membrane was investigated by the shift of the position of the fluorescence spectral maximum for the peptides in the presence POPC liposomes induced by a drop of pH from 8 to 2.5 by the addition of HCl. The peptides were incubated overnight with 50-nm POPC liposomes (final concentration of the peptides and POPC in solution was 5 μM and 1 mM, respectively), and pH decrease was achieved by the addition of aliquots of 4, 2, 1 and 0.1 M HCl. pH was measured by micro-electrode probe (Thermo Electron Corporation, Orion Ross Micro pH electrode). Fluorescence spectra were recorded at each pH value. The spectra were analyzed by the decomposition algorithms using on-line PFAST toolkit[47] (Protein Fluorescence and Structural Toolkit: http://pfast.phys.uri.edu/) to establish the position of the emission maximum. Finally, the positions of the fluorescence spectral maxima (λmax) were plotted versus pH, and the Henderson–Hasselbalch equation was used to fit the data (using Origin 8.5 software): […]
# where [drawing 3] and [drawing 4] are the beginning and the end of the transition, respectively, and pKa – is the midpoint of the transition.
# [2] = Lipid titration, peptide-membrane partition model, Gibbs free energy; type: physicochemical; conditions: 5 μM peptide, varying 50 nm POPC liposomes
# Experimental: Samples containing 5 μM of peptides at pH 8 and pH 3, and varying concentrations of lipids of the 50 nm POPC liposomes were prepared. The fluorescence spectra of peptides in all samples were measured at 280 nm excitation at 25 °C. A series of POPC blanks with the same concentrations of lipids were measured with the same instrument settings and were subtracted from the corresponding fluorescence spectra of peptides in the presence of POPC. The areas under the emission spectra were calculated and the values were normalized to the first point (the emission of the peptide in the absence of POPC). The titration data were fitted by the peptide-membrane partition model to calculate the mole-fraction partition coefficient, K
# where F0 is the fluorescence intensity at zero concentration of lipids (in our case F0 = 1); ΔF if the fluorescence increase in the result of the titration with lipids; Clipids is the concentration of lipids; W is the molar concentration of water (55.3 M). Nonlinear least squares curve fitting procedure using Levenberg-Marquardt algorithm was implemented in Origin 8.5.0 SR1. The Gibbs free energy (ΔG) was calculated according to the equation: […]
# where R is the gas constant and T is the temperature in Kelvin.
smiles,measurement,setting,value
O=C(O)CC[C@@H]1NC(=O)[C@H](CS)NC(=O)[C@H](Cc2c[nH]c3ccccc23)NC(=O)[C@H](Cc2c[nH]c3ccccc23)NC(=O)[C@H](Cc2c[nH]c3ccccc23)NC(=O)[C@H](Cc2c[nH]c3ccccc23)NC(=O)[C@H](Cc2c[nH]c3ccccc23)NC(=O)[C@H](CCC(=O)O)NC(=O)[C@H](CCC(=O)O)NC(=O)[C@H](CCC(=O)O)NC1=O [c[E4W5C]],apparent pK (pKa) of peptide's partitioning into the bilayer,[1],5.7
same,additional free energy released at low pH,"[2]; pH 3 versus pH 8, 25 °C",about 0.7 kcal/mol
same,free energy released on partitioning into the lipid bilayer at pH 8,"[2]; pH 8, 25 °C, partition model",About 7.3 kcal/mol

# From PMC4981864, “Novel pH-Sensitive Cyclic Peptides” (Scientific Reports, 2016)
